Experimental data reported in patent publication EP4140481A1, “PROTEIN-OLIGOMER BINDING AGENTS AND THERAPEUTIC USES THEREOF” (Galyan Bio, Inc., priority 2021, dated 2023).

Experiments:
[1] = target: T1, Wild type (wt) α-Synuclein (Homo sapiens, UniProt P37840); test: Dynamic Light Scattering (DLS), induced aggregation; assay type: biochemical
T1 construct: purchased rPeptide, Watkinsville, Georgia S-1001-2
Experimental: In order to induce the formation of smaller oligomers of the α-Synuclein protein it was hypothised that using DMSO as a solvent induces oligomer formation Kostka et al., THE JOURNAL OF BIOLOGICAL […] VOL. 283, NO. 16, pp. 10992-11003, April 18, 2008). In order to assess the ability of certain compounds to induce formation of aggregates from protein-oligomers, the following experiments were conducted.
Proteins were ultracentrifuged with 50,000 rpm (rounds per minute) for one hour at 2 °C. The supernatant was used for DLS measurements. DLS measurements were conducted with Malvern Zetasizer Nano (Malvern Panalytical Ltd, United Kingdom).
Wild type (wt) α-Synuclein (catalog S-1001-2, rPeptide, Watkinsville, Georgia) was solved in 20 mM phosphate, pH 7.4 buffer.
As mentioned, it was described that 1% DMSO was used to induce α-Synuclein to form small oligomers (Kostka et al., THE JOURNAL OF BIOLOGICAL […] VOL. 283, NO. 16, pp. 10992-11003, April 18, 2008). 1% DMSO (Sigma) was used to trigger small oligomer formation of wt α-Synuclein. 1% DMSO was added to wt α-Synuclein to measure the effect of DMSO alone on wt α-Synuclein. With DLS there is no volume difference detectable between wt α-Synuclein with and without 1% DMSO (Figure 44). […] 1% DMSO induces the formation of small oligomers, which interact with Compound 4 and form larger aggregates of the oligomers.

C. elegans = C. elegans healthspan, Worm Activity (aggregate movement); assay type: in vivo
Text: Background: To measure healthspan, active worms were identified using the ALM scanner images from the lifespan assay. The worms' spatial location on the plate was quantified throughout their lifespan to assess healthspan. Worm Activity serves as a proxy for animal health. Changes in spatial distribution of the worms between time points is used to derive aggregate movement for the population over time.
Worm Activity is described by two complementary measurements of aggregate movement: 1) Centroid Distance calculates a geometric center for each individual worm, and then measures the minimum collective distance that a group of worms moved between time points. It achieves measurement of the changes in spatial distribution betweentime-points. 2). Spatial Distribution uses changes in worm contours between time points to measure the changes in the spatial distribution of the worms' bodies. The normalized distribution of these distances in the population provides a measure of how much the group of worms altered their positions and posture on the plate between two time-points. For both of these activity metrics, a plot with higher numbers indicates good health, and all measures are normalized to fall between 0 and 1. All measurements are based on worms that are still alive and moving at the time of quantification. […]

R6/2 mice = test: Grip strength in R6/2 mice of Huntington's disease; assay type: in vivo; conditions: 33 mg/kg i.p. QD; versus vehicle treated R6/2 mice
Experimental: Methods ― Total of 20 female and male R6/2 mice and 10 female and male wild-type littermate control mice (WT) were used in the study. The mice were genotyped and the R6/2 mice were divided into different treatment groups based on their litter and baseline body weight. The treatment with Vehicle or Compound 22 (33 mg/kg; 5 ml/kg, i.p. QD) was started at 4 weeks of age after the baseline behavioral tests (Figure 6). Body weights were measured at 3 weeks of age and twice a week until the end of the study.
The experimental groups were: • Group 1) 10 wild-type mice (mixed gender) treated with Vehicle (5 ml/kg, i.p., QD) starting at 4 weeks of age • Group 2) 10 R6/2 mice (mixed gender) treated with Vehicle (5 ml/kg, i.p., QD) starting at 4 weeks of age • Group 3) 10 R6/2 mice (mixed gender) treated with Compound 22 (33 mg/kg; 5 ml/kg, i.p. QD) starting at 4 weeks of age
Compound Delivery and Dosing - Treatment with Compound 22 (33 mg/kg; 5 ml/kg, i.p. QD) or Vehicle was started at age week 4 and continued until the 12 weeks of age. […]
Mice were taken to the experimental room and, one at a time, were placed on the grip strength apparatus (San Diego Instruments, San Diego, USA) in such a way that the animal grabbed a small mesh grip with its forepaws. […] Five scores were recorded per animal in consecutive sequence, and the average of three best scores for each animal was used for the results. […]

[2] = by volume, 70 µM equimolar Compound 4 solved in methanol
[3] = by volume, equimolar Compound 4 solved in DMSO (1% DMSO)

Compound	aggregation of wt α-Synuclein ([1]; Compound 4 solved in DMSO)	% Volume, Peak 2 [1, 2]	% Volume, Peak 3 [1, 2]	Size, Peak 1 [1, 2]	Size, Peak 2 [1, 2]	Size, Peak 3 [1, 2]	% Volume, Peak 1 [1, 3]	% Volume, Peak 2 [1, 3]	Size, Peak 1 [1, 3]	Size, Peak 2 [1, 3]	aggregate movement (Centroid Distance, Spatial Distribution) (C. elegans; high dose (2 µM), after a slower start)	aggregate movement (Centroid Distance, Spatial Distribution) (C. elegans; low dose (200 nM), over the lifespan)	grip strength (R6/2 mice)
CCc1c(C)[nH]c2ccc(C(=O)NCCN(CC)CC)cc12 [Compound 4, N-(2-(diethylamino)ethyl)-3-ethyl-2-methyl-1H-indole-5-carboxamide]	forms aggregates	0.3%	0.3%	6.139 nm	80.87 nm	338.7 nm	96.2%	3.8%	144.0 nm	4794 nm	even more elevated movement	consistently higher aggregate movement than control	–
Cc1[nH]c2ccc(C(=O)NCCN(C(C)C)C(C)C)cc2c1C [Compound 22]	–	–	–	–	–	–	–	–	–	–	–	–	no significant differences
